These results are taken from PubChem BioAssay (NCI).

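Values below derive from 48-hour exposures of cells grown in 96-well plates, with endpoints linearly interpolated between the two concentrations bracketing the appropriate inhibition level. GI50 = concentration required for 50% inhibition of growth. TGI denotes the concentration required for complete inhibition of growth.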 Bounds are passed on as bounds.

Some test systems named below: HOP-92 NSCLC; DU-145 prostate; EKVX NSCLC; SF-295 CNS; U251 CNS; RPMI-8226 leukemia; UACC-62 melanoma; NCI/ADR-RES ovarian; HCT-116 colon; SF-539 CNS; SF-268 CNS; MDA-N; HS 578T breast.
Holding throughout (test): DTP human tumour cell line panel, 48 h

What is called TGI is the concentration at which net growth stops. A low value points to more potent growth arrest. Regarding `CSc1nc2c(c(=O)n1C)N=C(c1ccc([N+](=O)[O-])cc1)CC(c1ccccc1)N2` (stereo not drawn), the TGI in the experiment on HOP-92 NSCLC, in the experiment with DU-145 prostate, in the experiment on EKVX NSCLC, in the experiment with SF-295 CNS, with U251 CNS and in the experiment on RPMI-8226 leukemia was over 100 µM each time. For the same compound, the total growth inhibition concentration (TGI) with UACC-62 melanoma, in the experiment on NCI/ADR-RES ovarian, in the experiment on HCT-116 colon and with SF-539 CNS was over 100 µM throughout.
As to `O=C(N/N=C/c1cc(Br)cc(Br)c1[O-])c1ccccc1O.O=C(N/N=C/c1cc(Br)cc(Br)c1[O-])c1ccccc1O.[Zn+2]`, the TGI in the experiment with HOP-92 NSCLC is 5.09 µM; in the experiment on EKVX NSCLC it was 10.9 µM; with SF-295 CNS it was 5.28 µM; in the experiment with U251 CNS, 2.01 µM; with UACC-62 melanoma, 2.34 µM; with HCT-116 colon it was 13 µM. For the same compound, the TGI is 10.7 µM in the experiment on SF-539 CNS and 17.5 µM in the experiment on SF-268 CNS.
As for `Cc1ccc2c(=O)cc(-c3ccc(C)s3)[nH]c2n1`, the TGI with HOP-92 NSCLC is over 100 µM; with DU-145 prostate it was over 55.4 µM; in the experiment on EKVX NSCLC, over 100 µM; with SF-295 CNS it was 2.79 µM; in the experiment on U251 CNS, over 55.2 µM; in the experiment on RPMI-8226 leukemia, 2.57 µM. The TGI in the experiment on UACC-62 melanoma was over 78.1 µM; with NCI/ADR-RES ovarian, 0.676 µM; in the experiment on HCT-116 colon, over 100 µM; with SF-539 CNS, 0.972 µM; in the experiment with SF-268 CNS it was over 74 µM.
Consider `CC(=O)OCC1OC(n2c3c(c(-c4ccc(Cl)cc4)c(C#N)c2=S)CCCC3)C(OC(C)=O)C(OC(C)=O)C1OC(C)=O` (stereo not drawn), for which the TGI is 40.4 µM in the experiment with HOP-92 NSCLC; over 100 µM in the experiment with MDA-N; over 100 µM in the experiment on DU-145 prostate; over 100 µM in the experiment on SF-295 CNS; over 100 µM with U251 CNS; 75.1 µM in the experiment on UACC-62 melanoma. For the same compound, the TGI with NCI/ADR-RES ovarian, in the experiment with HCT-116 colon, with SF-539 CNS and with SF-268 CNS was over 100 µM in each case.
`COc1cc(OC)cc(-c2cc(=O)c3cc4c(cc3[nH]2)OCO4)c1`: the TGI in the experiment with HOP-92 NSCLC was 21.1 µM; in the experiment on EKVX NSCLC, over 100 µM; in the experiment on SF-295 CNS, 1.74 µM; in the experiment on U251 CNS, over 31.9 µM; with RPMI-8226 leukemia, over 58.8 µM; with UACC-62 melanoma, over 53.3 µM. Besides, the TGI came to 5.5 µM in the experiment with HCT-116 colon, 0.498 µM in the experiment on SF-539 CNS and 38.6 µM in the experiment with SF-268 CNS.
With `CC(=O)O[C@H]1C(=O)[C@@]2(C)[C@H]([C@H](OC(=O)c3ccccc3)[C@]3(O)C[C@H](OC(=O)[C@H](O)[C@@H](NC(=O)c4ccco4)c4ccccc4)C(C)=C1C3(C)C)[C@]1(OC(C)=O)CO[C@@H]1C[C@@H]2O`, the TGI with HS 578T breast is 0.00279 µM; with DU-145 prostate, over 12.5 µM; with EKVX NSCLC, over 12.5 µM; in the experiment on SF-295 CNS, over 12.5 µM; in the experiment on U251 CNS, over 12.5 µM; in the experiment with RPMI-8226 leukemia, under 0.00125 µM. The TGI in the experiment with UACC-62 melanoma is over 12.5 µM; in the experiment with NCI/ADR-RES ovarian, over 7.75 µM; in the experiment on HCT-116 colon, over 12.5 µM; with SF-539 CNS, 0.00454 µM; with SF-268 CNS it was over 12.5 µM.
A word on the GI50: it is the concentration giving 50% growth inhibition. Take `COc1cc2c(c(OC)c1OC)-c1ccc(SC)c(=O)cc1[C@@H](O)CC2`: the figures for the GI50 with HOP-92 NSCLC, with EKVX NSCLC and with SF-268 CNS were over 100 µM, over 100 µM and 0.0153 µM, respectively. Besides, the TGI with HOP-92 NSCLC was over 100 µM; in the experiment with MDA-N it was 0.000318 µM; in the experiment on DU-145 prostate, over 100 µM; in the experiment with RPMI-8226 leukemia it was over 100 µM; in the experiment with UACC-62 melanoma, over 100 µM; in the experiment on NCI/ADR-RES ovarian, 0.302 µM. This compound also showed a TGI in the experiment with HCT-116 colon of over 100 µM.
`S=c1ncc2c([nH]1)C1c3ccccc3C2c2ccccc21`: the TGI in the experiment with EKVX NSCLC, in the experiment with SF-295 CNS, with U251 CNS, in the experiment on RPMI-8226 leukemia, in the experiment with UACC-62 melanoma and in the experiment on HCT-116 colon was over 100 µM throughout. Besides, the TGI with SF-539 CNS and in the experiment with SF-268 CNS was over 100 µM throughout.
Turning to `OC(CN(CCCl)CCCl)C(O)C(O)C(O)CN(CCCl)CCCl` (stereo not drawn), the TGI in the experiment on HOP-92 NSCLC, with HS 578T breast, in the experiment on DU-145 prostate, in the experiment on EKVX NSCLC, in the experiment with U251 CNS and in the experiment on RPMI-8226 leukemia was over 100 µM throughout. Further, the TGI in the experiment on UACC-62 melanoma, in the experiment on NCI/ADR-RES ovarian, with HCT-116 colon, in the experiment on SF-539 CNS and in the experiment with SF-268 CNS was over 100 µM in each case.
For `CC(Nc1ccc(Cl)c(Cl)c1)c1ccncc1` (stereo not drawn), the TGI with HOP-92 NSCLC was 54.8 µM; with MDA-N it was 66.6 µM; with DU-145 prostate it was 89.7 µM; with EKVX NSCLC it was over 100 µM; with SF-295 CNS it was 64.2 µM; in the experiment with U251 CNS, 46.2 µM. The TGI in the experiment with RPMI-8226 leukemia was 28.7 µM; with NCI/ADR-RES ovarian, over 100 µM; with HCT-116 colon it was 36.5 µM; with SF-539 CNS, 56.4 µM; in the experiment with SF-268 CNS, over 100 µM.
For `Cn1c2ccccc2c(=O)c2c(O)cc3c(c21)C=CC(C)(C)O3`, the concentration for total growth inhibition (TGI) in the experiment with HOP-92 NSCLC, in the experiment with EKVX NSCLC, in the experiment on SF-295 CNS, with U251 CNS, in the experiment with RPMI-8226 leukemia and in the experiment with UACC-62 melanoma was over 25 µM throughout. Besides, the TGI with NCI/ADR-RES ovarian, with HCT-116 colon, with SF-539 CNS and in the experiment on SF-268 CNS was over 25 µM throughout.
As to `CC1C2C=C(O)C(=O)C(C2=O)C1c1ccccc1` (stereo not drawn), the TGI in the experiment with HOP-92 NSCLC, with EKVX NSCLC, with SF-295 CNS, with U251 CNS, with RPMI-8226 leukemia and in the experiment with UACC-62 melanoma was over 100 µM throughout. Also, the TGI in the experiment with SF-539 CNS and in the experiment with SF-268 CNS was over 100 µM each time.
As to `COc1cccc(/C=C2\S/C(=N/Nc3nc(C)c(C)s3)NC2=O)c1O`, the TGI in the experiment on HOP-92 NSCLC, in the experiment with MDA-N, with DU-145 prostate, in the experiment with EKVX NSCLC, with SF-295 CNS and in the experiment on U251 CNS was over 100 µM each time. The TGI in the experiment with UACC-62 melanoma, in the experiment on NCI/ADR-RES ovarian, in the experiment with HCT-116 colon, in the experiment with SF-539 CNS and in the experiment on SF-268 CNS was over 100 µM each time.
